# Test results as given in PMC4710912, “High Proteolytic Resistance of Spider-Derived Inhibitor Cystine Knots” (International Journal of Peptides, 2015).
# Entries after “also recorded” stand apart in the source; their conditions may differ. Like-named read-outs stand apart in the source and are kept apart here. Bridge positions count the residues as written; N and C are the ends. Peptide text beside a SMILES is read from it.
# Legend:
# α-chymotrypsin = α-chymotrypsin (Bos taurus, UniProt P00766); assay: in vitro; conditions: pH 8
# Experimental: (§1) Human prolactin releasing peptide (hPRP) was used to show a non-ICK example which contains evenly spaced multiple enzyme cleavage sites. […] To mimic gastric degradation of peptides, 10 μL 100 ng/μL pepsin was mixed with 50 μL 100 ng/μL peptides in 1.5 mL tubes containing 20 μL 1 M glycine (pH2.0) and 20 μL distilled water. To study intestinal degradation of peptides, 10 μL 100 ng/μL trypsin was mixed with 50 μL 100 ng/μL peptides in 1.5 mL tubes containing 10 μL 500 mM Tris-HCl (pH8.0) and 30 μL distilled water; 10 μL 100 ng/μL chymotrypsin was mixed with 50 μL 100 ng/μL peptides in 1.5 mL tubes containing 10 μL 500 mM Tris-HCl (pH8.0), 10 μL 100 mM CaCl2, and 20 μL distilled water; 10 μL 100 ng/μL elastase was mixed with each 50 μL 100 ng/μL peptide in 1.5 mL tube containing 10 μL 500 mM Tris-HCl (pH8.0), 10 μL 100 mM KCl, and 20 μL distilled water. Mixtures of peptides and enzymes were incubated at 37°C for 1–4 hours, and 10 μL aliquots was set aside every 1 hour and placed on ice. 5 μL tricine sample buffer was immediately added to the aliquots and denatured at 100°C for 5 minutes to stop digestion.
# (§2) Denatured samples were separated by SDS-PAGE using SuperSep Ace 15–20% tricine gel (Wako, Osaka, Japan) at 200 V for 1 hour. Coomassie Brilliant Blue staining of the gel was performed with e-Stain 2.0 Protein Staining System using eStain Protein Staining Pad (GenScript, NJ, USA). Detected bands were digitized by an image scanner and quantified with Image Studio Digits (LI-COR Biosciences, NE, USA).
# (§3) Measurements were converted to the rate of degradation compared to the undegraded values. Experiments were repeated in triplicate and results are indicated as means ± SEM. Statistical significance was determined by Tukey-Kramer test and P values of <0.05 were considered significant.
# in vitro = conditions: isolated enzyme elastase, pH 8
# Experimental: as §1, §2, §3
# trypsin = system: trypsin
# Experimental: as §1, with “Mixtures of peptides and enzymes were incubated at 37°C for 1–4 hours, and 10 μL aliquots was set aside every 1 hour and placed on ice. 5 μL tricine sample buffer was immediately added to the aliquots and denatured at 100°C for 5 minutes to stop digestion.” left out
# Denatured samples were separated by SDS-PAGE using SuperSep Ace 15–20% tricine gel (Wako, Osaka, Japan) at 200 V for 1 hour. […] Detected bands were digitized by an image scanner and quantified with Image Studio Digits (LI-COR Biosciences, NE, USA).
# Measurements were converted to the rate of degradation compared to the undegraded values. […] Statistical significance was determined by Tukey-Kramer test and P values of <0.05 were considered significant.
# elastase = elastase (Sus scrofa, UniProt P00772); assay: in vitro
# Experimental: as §1, §2, §3
# rats = system: rats; design: method as in PMID 18728100; conditions: cited from earlier work
# [1] = In vitro ProTx-II degradation in rat blood plasma; format: in vitro ADME; conditions: 1 μg/mL in rat (male SD) blood plasma, 37°C, 24 hours, aliquots at 0, 2, 4, 8, 24 hours; LC-MS/MS; mean of n = 3
# Experimental: To observe peptide degradation in vitro, blood was extracted from three 8-week-old male SD rats after anesthesia with isoflurane inhalation and the plasma was separated by centrifugation at 1,850 g for 10 minutes at 4°C. Plasma was stored on ice and used within the day of the experiment. ProTx-II was added to the plasma to make 1 μg/mL mixture and incubated at 37°C for 24 hours, withdrawing 250 μL aliquots at 0, 2, 4, 8, and 24 hours. Samples were kept at −25°C away from light until analysis.
# (§4) For sample preparation, 100 μL plasma was mixed with 20 μL 50% methanol and 200 μL 4% phosphoric acid. Whole sample mixture was added to the Oasis HLB 1 cc/10 mg extraction cartridge (Waters) equilibrated with 1 mL methanol and 1 mL distilled water. The column was washed with 1 mL 5% methanol and eluted with 1 mL methanol. The elute was dried under nitrogen flow and dissolved in 100 μL solvent A/B (30% : 70%, v/v) for LC-MS/MS. 10 μL sample was analyzed by a Waters LC-MS/MS unit; ACQUITY UPLC BEH HILIC, 1.7 μm, 2.1 mm I.D. × 100 mm (Milford, MA) was used at a flow rate of 0.3 mL/min by linear gradient elution (solvent A : solvent B = 30% : 70%, v/v, solvent A: 0.1% TFA, solvent B: acetonitrile) using electrospray ionization for Xevo TQ MS (Waters, MA, USA).
# [2] = In vivo ProTx-II clearance from circulation; conditions: rat
# Experimental: To observe ProTx-II concentration in circulation blood in vivo, three nonfasted male rats were injected with 0.1 mg/mL/kg of ProTx-II from the femoral vein under isoflurane anesthesia. 450 μL blood samples were taken from the tail vein at 0.083 (5 min), 0.25, 0.5, 1, 2, 4, 8, and 24 hours after the injection using Pasteur pipettes coated with heparin sodium. Plasma was obtained by centrifugation at 10,000 g for 3 minutes at 4°C and stored at −25°C protected from light until analysis. Animal experiments were conducted by Nemoto Science Co., Ltd. (Ibaraki, Japan) in accordance with the guideline of the animal experiment ethics committee (authorization number: 14-0024) and under approval of animal experiment ethics committee of AIST (authorization number: 10150125-A-20131029-001).
# as §4
# elastase, sequence (P00772 27-266): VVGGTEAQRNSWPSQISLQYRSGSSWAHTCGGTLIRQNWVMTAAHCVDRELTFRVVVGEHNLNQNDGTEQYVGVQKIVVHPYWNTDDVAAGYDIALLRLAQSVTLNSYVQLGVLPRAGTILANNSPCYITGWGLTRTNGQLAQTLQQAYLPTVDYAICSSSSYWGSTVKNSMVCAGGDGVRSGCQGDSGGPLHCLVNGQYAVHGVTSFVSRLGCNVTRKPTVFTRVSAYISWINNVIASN
structure (smiles),measurement,setting,value
"CC(C)C[C@@H]1NC(=O)[C@@H](NC(=O)CN)CSSC[C@@H]2NC(=O)[C@@H]3CSSC[C@@H](C(=O)N[C@@H](CC(N)=O)C(=O)N[C@@H](Cc4ccccc4)C(=O)N[C@@H](CO)C(=O)N[C@@H](Cc4ccccc4)C(N)=O)NC(=O)[C@H](CC(C)C)NC(=O)[C@H](CCCCN)NC(=O)[C@H](Cc4ccccc4)NC(=O)[C@H](CC(C)C)NC(=O)[C@H](CCCCN)NC(=O)[C@H](CO)NC(=O)[C@H](CSSC[C@H](NC(=O)[C@H](CCCCN)NC(=O)[C@H](Cc4c[nH]c5ccccc45)NC(=O)[C@H](Cc4c[nH]c5ccccc45)NC(=O)[C@H](Cc4ccccc4)NC(=O)[C@H](CCC(=O)O)NC1=O)C(=O)N[C@@H](CC(N)=O)C(=O)N1CCC[C@H]1C(=O)N[C@@H](CC(N)=O)C(=O)N[C@@H](CC(=O)O)C(=O)N[C@@H](CC(=O)O)C(=O)N[C@@H](CCCCN)C(=O)N3)NC(=O)[C@H](CCCCN)NC(=O)[C@H](CC(C)C)NC(=O)[C@H](CCCCN)NC(=O)[C@@H]1CCCN1C(=O)[C@H](CCCNC(=N)N)NC2=O [GsMTx-4] (H-GCLEFWWKCNPNDDKCCRPKLKCSKLFKLCNFSF-NH2; disulfide 2-17, 9-23, 16-30)","degradation by chymotrypsin, overall result in words",α-chymotrypsin,not degraded at all
same,remaining at 4 h,in vitro,> 84%
CC(C)C[C@@H]1NC(=O)[C@H](Cc2c[nH]c3ccccc23)NC(=O)[C@H](Cc2ccc(O)cc2)NC(=O)[C@H](CCCNC(=N)N)NC(=O)[C@@H](NC(=O)[C@@H](N)CCC(=O)O)CSSC[C@@H]2NC(=O)[C@@H]3CSSC[C@@H](C(=O)N[C@H](C(=O)N[C@@H](Cc4c[nH]c5ccccc45)C(=O)N[C@@H](CC(=O)O)C(=O)NCC(=O)N[C@H](C(=O)N[C@@H](Cc4ccccc4)C(=O)N[C@@H](CO)C(=O)O)[C@@H](C)O)C(C)C)NC(=O)[C@H](Cc4c[nH]c5ccccc45)NC(=O)CNC(=O)[C@H](Cc4c[nH]cn4)NC(=O)[C@H](CCCNC(=N)N)NC(=O)[C@H](CCCNC(=N)N)NC(=O)[C@H](CO)NC(=O)[C@H](CSSC[C@H](NC(=O)CNC(=O)CNC1=O)C(=O)N[C@@H](CO)C(=O)N[C@@H](C)C(=O)NCC(=O)N[C@@H](CCC(N)=O)C(=O)N[C@@H]([C@@H](C)O)C(=O)N3)NC(=O)[C@H](C(C)C)NC(=O)[C@H](CC(C)C)NC(=O)[C@H](Cc1c[nH]cn1)NC(=O)[C@H](CCCCN)NC2=O [ProTx-I],digestion by trypsin within 1-hour incubation (in words),trypsin; pH 8,almost completely digested
same,degradation by chymotrypsin within 1 hour (in words),α-chymotrypsin,completely degraded
same,remaining at 4 h,"elastase; isolated enzyme elastase, pH 8",22%
same,"degradation by elastase, overall result in words",elastase; pH 8,degraded
"CC[C@H](C)[C@H](NC(=O)CNC(=O)[C@H](CCCNC(=N)N)NC(=O)[C@H](CO)NC(=O)[C@H](C)NC(=O)[C@H](Cc1ccc(O)cc1)NC(=O)[C@H](Cc1c[nH]c2ccccc12)NC(=O)[C@H](C)NC(=O)[C@@H]1CCCN1C(=O)[C@H](CC(N)=O)NC(=O)[C@@H](NC(=O)[C@H](CC(=O)O)NC(=O)[C@@H]1CCCN1C(=O)[C@@H](NC(=O)[C@H](CCCNC(=N)N)NC(=O)[C@@H](NC(=O)[C@H](CCC(=O)O)NC(=O)[C@H](CCSC)NC(=O)[C@H](CO)NC(=O)[C@H](Cc1c[nH]cn1)NC(=O)[C@H](CCCNC(=N)N)NC(=O)[C@H](Cc1c[nH]cn1)NC(=O)[C@@H](NC(=O)[C@H](CCCNC(=N)N)NC(=O)[C@@H](N)CO)[C@@H](C)O)[C@@H](C)CC)[C@@H](C)O)[C@@H](C)CC)C(=O)N[C@@H](CCCNC(=N)N)C(=O)N1CCC[C@H]1C(=O)N[C@H](C(=O)NCC(=O)N[C@@H](CCCNC(=N)N)C(=O)N[C@@H](Cc1ccccc1)C(N)=O)C(C)C [hPRP, Human prolactin-releasing peptide]",digestion by trypsin within 1-hour incubation (in words),"trypsin; 10 μL 100 ng/μL trypsin + 50 μL 100 ng/μL peptide, Tris-HCl pH8.0, 37°C, 1 hour, SDS-PAGE, CBB staining, n = 3",almost completely digested
same,degradation by chymotrypsin within 1 hour (in words),α-chymotrypsin,completely degraded
same,"degradation by elastase, overall result in words","elastase; elastase, pH8.0, 37°C, up to 4 hours, SDS-PAGE, CBB staining, mean of n = 3",eventually digested all
CSCC[C@@H]1NC(=O)CNC(=O)[C@H](CCC(=O)O)NC(=O)[C@@H]2CSSC[C@H](NC(=O)[C@@H](N)Cc3ccc(O)cc3)C(=O)N[C@@H](CCC(N)=O)C(=O)N[C@@H](CCCCN)C(=O)N[C@@H](Cc3c[nH]c4ccccc34)C(=O)N[C@@H](CCSC)C(=O)N[C@@H](Cc3c[nH]c4ccccc34)C(=O)N[C@@H]([C@@H](C)O)C(=O)N[C@H]3CSSC[C@H](NC(=O)[C@H](C(C)C)NC1=O)C(=O)N[C@@H](CCCNC(=N)N)C(=O)N[C@@H](CC(C)C)C(=O)N[C@@H](Cc1c[nH]c4ccccc14)C(=O)N[C@H](C(=O)N[C@@H](CCCCN)C(=O)N[C@@H](CCCCN)C(=O)N[C@@H](CCCCN)C(=O)N[C@@H](CC(C)C)C(=O)N[C@@H](Cc1c[nH]c4ccccc14)C(=O)O)CSSC[C@H](NC(=O)[C@H](CCCCN)NC(=O)[C@H](CCCNC(=N)N)NC(=O)[C@H](CCC(=O)O)NC(=O)[C@H](CO)NC(=O)[C@H](CC(=O)O)NC3=O)C(=O)N2 [ProTx-II],mortal plasma concentration,rats; 1 mg/kg dosage,3 µM
same,dosage reported to be lethal in rats,rats,1 mg/kg
same,degradation in rat blood plasma in vitro (in words),[1],not degraded at all; also recorded: No ProTx-II degradation was observed
same,remaining at 4 h,α-chymotrypsin; isolated enzyme chymotrypsin,86%
same,peptide remaining undigested with elastase at 4 hours,"elastase; elastase, Tris-HCl pH8.0, KCl, 37°C, 4 hours, SDS-PAGE, CBB staining, band quantification, mean of n = 3",over 84%
same,level at 8 h,"[2]; male, plasma, iv, 0.1 mg/mL/kg into the femoral vein, 8 hours after administration, LC-MS/MS, n = 3, read-out: ProTx-II concentration in circulation blood at 8 hours (detection limit)",< 30 ng/mL
same,time for concentration to drop to the detection limit,"[2]; 0.1 mg/mL/kg into the femoral vein, detection limit 30.0 ng/mL, LC-MS/MS, n = 3",≤ 8 h
same,concentration in circulation corresponding to the detection limit of 30 ng/mL,"[2]; 8 hr, molar conversion of the detection limit",7.8 nM
